This passage reports ring closure, isolated yield results from PMC8199946.

A short description of series [1]: macrolactonisation by intramolecular SN2 of carboxylate on C6 sulfonate (tosylate; one brosylate, one chloride) of glucosamine derivative, K2CO3 2 equiv. Particulars: DMF, 10.0 mM, 75.0 °C.
A short description of series [2]: macrolactonisation by intramolecular SN2 of carboxylate on C6 tosylate of GlcNAc derivative, K2CO3 2 equiv. Particulars: MeCN, 6.0 mM, 75.0 °C.

Regarding `CC(=O)N[C@H]1[C@H]2OCCn3cc(nn3)CCCCCCCCC(=O)OC[C@@H](O2)[C@@H](OC(=O)c2ccccc2)[C@@H]1OC(=O)c1ccccc1` [8a -> LM28, OBs], the ring closure, isolated yield in series [1] (from CC(=O)N[C@H]1[C@@H](OCCn2cc(CCCCCCCCC(=O)O)nn2)O[C@H](COS(=O)(=O)c2ccc(Br)cc2)[C@@H](OC(=O)c2ccccc2)[C@@H]1OC(=O)c1ccccc1, 20-membered ring, 5.0 h) was determined as 72%. Consider `CC(=O)N[C@H]1[C@H]2OCCn3cc(nn3)CCCCCCCCC(=O)OC[C@@H](O2)[C@@H](OC(=O)c2ccccc2)[C@@H]1OC(=O)c1ccccc1` [8b -> LM28, Cl], for which the ring closure, isolated yield in series [1] (from CC(=O)N[C@H]1[C@@H](OCCn2cc(CCCCCCCCC(=O)O)nn2)O[C@H](CCl)[C@@H](OC(=O)c2ccccc2)[C@@H]1OC(=O)c1ccccc1, 20-membered ring, 5.0 h) was determined as 67%. Consider `CC(=O)N[C@H]1[C@H]2OCCn3cc(nn3)CCCCCCCCC(=O)OC[C@@H](O2)[C@@H](OC(=O)c2ccccc2)[C@@H]1OC(=O)c1ccccc1` [8c -> 13c (LM28), OTs], for which the ring closure, isolated yield in series [1] (from CC(=O)N[C@H]1[C@@H](OCCn2cc(CCCCCCCCC(=O)O)nn2)O[C@H](COS(=O)(=O)c2ccc(C)cc2)[C@@H](OC(=O)c2ccccc2)[C@@H]1OC(=O)c1ccccc1, 20-membered ring, 3.0 h) was 82%. For the molecule `CC(=O)N[C@H]1[C@H]2OCCn3cc(nn3)CCCCCCCCC(=O)OC[C@@H](O2)[C@@H](OC(=O)c2ccccc2)[C@@H]1OC(=O)c1ccccc1` [8c -> LM28 (13c)], in series [2] (from CC(=O)N[C@H]1[C@@H](OCCn2cc(CCCCCCCCC(=O)O)nn2)O[C@H](COS(=O)(=O)c2ccc(C)cc2)[C@@H](OC(=O)c2ccccc2)[C@@H]1OC(=O)c1ccccc1, 20-membered ring, 6.0 h), the ring closure, isolated yield worked out at 77%.

Consider `CC(=O)N[C@H]1[C@H]2OCCn3cc(nn3)CCCCC(=O)OC[C@@H](O2)[C@@H](OC(=O)c2ccccc2)[C@@H]1OC(=O)c1ccccc1` [11a -> 13a (LM24)], for which, in series [1] (from CC(=O)N[C@H]1[C@@H](OCCn2cc(CCCCC(=O)O)nn2)O[C@H](COS(=O)(=O)c2ccc(C)cc2)[C@@H](OC(=O)c2ccccc2)[C@@H]1OC(=O)c1ccccc1, 16-membered ring, 2.0 h), the ring closure, isolated yield came out at 88%. On to `CC(=O)N[C@H]1[C@H]2OCCn3cc(nn3)CCCCCCC(=O)OC[C@@H](O2)[C@@H](OC(=O)c2ccccc2)[C@@H]1OC(=O)c1ccccc1` [11b -> 13b (LM26)], for which the ring closure, isolated yield in series [1] (from CC(=O)N[C@H]1[C@@H](OCCn2cc(CCCCCCC(=O)O)nn2)O[C@H](COS(=O)(=O)c2ccc(C)cc2)[C@@H](OC(=O)c2ccccc2)[C@@H]1OC(=O)c1ccccc1, 18-membered ring, 5.0 h) was determined as 76%. `CC(=O)N[C@H]1[C@H]2OCCCn3cc(nn3)CCCCC(=O)OC[C@@H](O2)[C@@H](OC(=O)c2ccccc2)[C@@H]1OC(=O)c1ccccc1` [12a -> 14a (LM34)]: the ring closure, isolated yield in series [1] (from CC(=O)N[C@H]1[C@@H](OCCCn2cc(CCCCC(=O)O)nn2)O[C@H](COS(=O)(=O)c2ccc(C)cc2)[C@@H](OC(=O)c2ccccc2)[C@@H]1OC(=O)c1ccccc1, 17-membered ring, 2.0 h) stood at 88%.

As to `CC(=O)N[C@H]1[C@H]2OCCCn3cc(nn3)CCCCCCC(=O)OC[C@@H](O2)[C@@H](OC(=O)c2ccccc2)[C@@H]1OC(=O)c1ccccc1` [12b -> 14b (LM36)], in series [1] (from CC(=O)N[C@H]1[C@@H](OCCCn2cc(CCCCCCC(=O)O)nn2)O[C@H](COS(=O)(=O)c2ccc(C)cc2)[C@@H](OC(=O)c2ccccc2)[C@@H]1OC(=O)c1ccccc1, 19-membered ring, 2.0 h), the ring closure, isolated yield was determined as 83%. As to `CC(=O)N[C@H]1[C@H]2OCCCn3cc(nn3)CCCCCCCCC(=O)OC[C@@H](O2)[C@@H](OC(=O)c2ccccc2)[C@@H]1OC(=O)c1ccccc1` [12c -> 14c (LM38)], the ring closure, isolated yield in series [1] (from CC(=O)N[C@H]1[C@@H](OCCCn2cc(CCCCCCCCC(=O)O)nn2)O[C@H](COS(=O)(=O)c2ccc(C)cc2)[C@@H](OC(=O)c2ccccc2)[C@@H]1OC(=O)c1ccccc1, 21-membered ring, 2.0 h) was determined as 83%. For the molecule `CC(=O)N[C@H]1[C@H]2OCCn3cc(nn3)CCCCc3cn(nn3)CCC(=O)OC[C@@H](O2)[C@@H](OC(=O)c2ccccc2)[C@@H]1OC(=O)c1ccccc1` [15a -> 16a (DM24)], the ring closure, isolated yield was 77% in series [2] (from CC(=O)N[C@H]1[C@@H](OCCn2cc(CCCCc3cn(CCC(=O)O)nn3)nn2)O[C@H](COS(=O)(=O)c2ccc(C)cc2)[C@@H](OC(=O)c2ccccc2)[C@@H]1OC(=O)c1ccccc1, 21-membered ring, 11.0 h) and 90% in series [1] (from CC(=O)N[C@H]1[C@@H](OCCn2cc(CCCCc3cn(CCC(=O)O)nn3)nn2)O[C@H](COS(=O)(=O)c2ccc(C)cc2)[C@@H](OC(=O)c2ccccc2)[C@@H]1OC(=O)c1ccccc1, 21-membered ring, 4.0 h).

As to `CC(=O)N[C@H]1[C@H]2OCCn3cc(nn3)CCCCCc3cn(nn3)CCC(=O)OC[C@@H](O2)[C@@H](OC(=O)c2ccccc2)[C@@H]1OC(=O)c1ccccc1` [15b -> 16b (DM25)], the ring closure, isolated yield in series [2] (from CC(=O)N[C@H]1[C@@H](OCCn2cc(CCCCCc3cn(CCC(=O)O)nn3)nn2)O[C@H](COS(=O)(=O)c2ccc(C)cc2)[C@@H](OC(=O)c2ccccc2)[C@@H]1OC(=O)c1ccccc1, 22-membered ring, 14.0 h) was determined as 71%; in series [1] (from CC(=O)N[C@H]1[C@@H](OCCn2cc(CCCCCc3cn(CCC(=O)O)nn3)nn2)O[C@H](COS(=O)(=O)c2ccc(C)cc2)[C@@H](OC(=O)c2ccccc2)[C@@H]1OC(=O)c1ccccc1, 22-membered ring, 2.0 h), 88%. As for `CC(=O)N[C@H]1[C@H]2OCCCn3cc(nn3)CCCCc3cn(nn3)CCC(=O)OC[C@@H](O2)[C@@H](OC(=O)c2ccccc2)[C@@H]1OC(=O)c1ccccc1` [15c -> 16c (DM34)], the ring closure, isolated yield in series [2] (from CC(=O)N[C@H]1[C@@H](OCCCn2cc(CCCCc3cn(CCC(=O)O)nn3)nn2)O[C@H](COS(=O)(=O)c2ccc(C)cc2)[C@@H](OC(=O)c2ccccc2)[C@@H]1OC(=O)c1ccccc1, 22-membered ring, 14.0 h) worked out at 78%; in series [1] (from CC(=O)N[C@H]1[C@@H](OCCCn2cc(CCCCc3cn(CCC(=O)O)nn3)nn2)O[C@H](COS(=O)(=O)c2ccc(C)cc2)[C@@H](OC(=O)c2ccccc2)[C@@H]1OC(=O)c1ccccc1, 22-membered ring, 2.0 h), 85%. Take `CC(=O)N[C@H]1[C@H]2OCCCn3cc(nn3)CCCCCc3cn(nn3)CCC(=O)OC[C@@H](O2)[C@@H](OC(=O)c2ccccc2)[C@@H]1OC(=O)c1ccccc1` [15d -> 16d (DM35)]: the ring closure, isolated yield in series [2] (from CC(=O)N[C@H]1[C@@H](OCCCn2cc(CCCCCc3cn(CCC(=O)O)nn3)nn2)O[C@H](COS(=O)(=O)c2ccc(C)cc2)[C@@H](OC(=O)c2ccccc2)[C@@H]1OC(=O)c1ccccc1, 23-membered ring, 15.0 h) amounted to 74%; in series [1] (from CC(=O)N[C@H]1[C@@H](OCCCn2cc(CCCCCc3cn(CCC(=O)O)nn3)nn2)O[C@H](COS(=O)(=O)c2ccc(C)cc2)[C@@H](OC(=O)c2ccccc2)[C@@H]1OC(=O)c1ccccc1, 23-membered ring, 3.0 h), 78%. As for `CO[C@H]1O[C@@H]2COC(=O)CCCCCCCCc3cn(nn3)CC(=O)N[C@@H]1[C@@H](OC(=O)c1ccccc1)[C@@H]2OC(=O)c1ccccc1` [21 -> 22 (C2ML)], the ring closure, isolated yield in series [1] (from CO[C@H]1O[C@H](COS(=O)(=O)c2ccc(C)cc2)[C@@H](OC(=O)c2ccccc2)[C@H](OC(=O)c2ccccc2)[C@H]1NC(=O)Cn1cc(CCCCCCCCC(=O)O)nn1, 21-membered ring, 2.0 h) worked out at 80%. For `CO[C@H]1O[C@@H]2COC(=O)CCn3cc(nn3)CCCCc3cn(nn3)CC(=O)N[C@@H]1[C@@H](OC(=O)c1ccccc1)[C@@H]2OC(=O)c1ccccc1` [23 -> 24 (C2DLM)], the ring closure, isolated yield in series [1] (from CO[C@H]1O[C@H](COS(=O)(=O)c2ccc(C)cc2)[C@@H](OC(=O)c2ccccc2)[C@H](OC(=O)c2ccccc2)[C@H]1NC(=O)Cn1cc(CCCCc2cn(CCC(=O)O)nn2)nn1, 22-membered ring, 2.0 h) came to 77%.
